For the assay, the target named is human PDE10A (Homo sapiens (Human), UniProt Q9Y233). In words: human PDE10A full length Scintillation Proximity Assay (SPA). The format is biochemical. The following applies: 50 nM cGMP and 50 nM [3H]-cGMP, 20 minutes at room temperature; read-out: PDE10A inhibition IC50. In a few lines: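 Full-length enzyme incubated with compounds; reaction started with cGMP plus [^3H]-cGMP substrate and run 20 min at room temperature. Stopped with yttrium silicate SPA beads in 18 mM zinc sulphate, 1 h shaking, then scintillation counting; background from enzyme-free wells.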
Sequence of human PDE10A (Q9Y233 other isoform, or with tags, fused parts or gaps): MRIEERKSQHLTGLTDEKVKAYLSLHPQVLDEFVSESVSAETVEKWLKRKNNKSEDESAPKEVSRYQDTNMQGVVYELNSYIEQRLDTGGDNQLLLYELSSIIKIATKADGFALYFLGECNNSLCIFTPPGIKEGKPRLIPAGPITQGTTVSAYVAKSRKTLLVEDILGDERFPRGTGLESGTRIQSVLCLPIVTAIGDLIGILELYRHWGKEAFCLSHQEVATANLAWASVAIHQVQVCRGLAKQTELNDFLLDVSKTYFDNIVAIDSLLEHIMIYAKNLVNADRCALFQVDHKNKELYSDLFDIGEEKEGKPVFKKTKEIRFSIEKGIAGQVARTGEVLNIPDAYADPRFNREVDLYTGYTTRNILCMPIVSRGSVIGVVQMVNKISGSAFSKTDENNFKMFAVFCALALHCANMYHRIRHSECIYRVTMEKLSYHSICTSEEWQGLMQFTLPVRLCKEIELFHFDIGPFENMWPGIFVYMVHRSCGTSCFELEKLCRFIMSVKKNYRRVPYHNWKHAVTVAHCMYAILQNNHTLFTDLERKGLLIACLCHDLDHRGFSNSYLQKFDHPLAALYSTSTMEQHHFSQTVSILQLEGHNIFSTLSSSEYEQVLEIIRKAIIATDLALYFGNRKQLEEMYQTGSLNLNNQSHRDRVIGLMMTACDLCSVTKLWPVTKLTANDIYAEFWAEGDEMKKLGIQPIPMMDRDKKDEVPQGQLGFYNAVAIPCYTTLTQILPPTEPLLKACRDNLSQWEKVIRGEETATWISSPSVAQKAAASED
For orientation: Scintillation proximity formats need no separation of bound from free tracer.

Here are results for twelve molecules from patent publication US8703768B2, “Nitrogen containing heteroaryl compounds” (Hoffmann-La Roche Inc., priority 2010, dated 2014).

The IC50 is the point on the concentration scale where inhibition reaches its midpoint. Turning to `CCNC(=O)c1ncccc1NC(=O)c1nc(C2CC2)cnc1Nc1cncnc1` [Example 220, 6-Cyclopropyl-3-(pyrimidin-5-ylamino)-pyrazine-2-carboxylic acid (2-ethylcarbamoyl-pyridin-3-yl)-amide], the IC50 turned out to be 2.3 nM.
The value for `CC(C)NC(=O)c1ncccc1NC(=O)c1nc(C2CC2)cnc1Nc1cncnc1` [Example 221, 6-Cyclopropyl-3-(pyrimidin-5-ylamino)-pyrazine-2-carboxylic acid (2-isopropylcarbamoyl-pyridin-3-yl)-amide] was 4.9 nM; that for `CCCN(CCC)C(=O)c1c(NC(=O)c2nc(C3CC3)cnc2Nc2cncnc2)cnn1C` [Example 222, 6-Cyclopropyl-3-(pyrimidin-5-ylamino)-pyrazine-2-carboxylic acid (5-dipropylcarbamoyl-1-methyl-1H-pyrazol-4-yl)-amide] was 42.5 nM; that for `CCCCN(C)C(=O)c1c(NC(=O)c2nc(C3CC3)cnc2Nc2cncnc2)cnn1C` [Example 223, 6-Cyclopropyl-3-(pyrimidin-5-ylamino)-pyrazine-2-carboxylic acid [5-(butyl-methyl-carbamoyl)-1-methyl-1H-pyrazol-4-yl]-amide] was 18.4 nM.
For `CNC(=O)c1c(C)cccc1NC(=O)c1nc(C2CC2)cnc1Nc1cncnc1` [Example 224, 6-Cyclopropyl-3-(pyrimidin-5-ylamino)-pyrazine-2-carboxylic acid (3-methyl-2-methylcarbamoyl-phenyl)-amide], the IC50 is 18.1 nM.
Consider `CNC(=O)c1cc(OC)ccc1NC(=O)c1nc(C2CC2)cnc1Nc1cncnc1` [Example 225, 6-Cyclopropyl-3-(pyrimidin-5-ylamino)-pyrazine-2-carboxylic acid (4-methoxy-2-methylcarbamoyl-phenyl)-amide], for which the IC50 came out at 0.5 nM.
For `CN(CCO)C(=O)c1c(NC(=O)c2nc(C3CC3)cnc2Nc2cncnc2)cnn1C` [Example 226, 6-Cyclopropyl-3-(pyrimidin-5-ylamino)-pyrazine-2-carboxylic acid [5-[(2-hydroxy-ethyl)-methyl-carbamoyl]-1-methyl-1H-pyrazol-4-yl]-amide] the value was 54.3 nM; for `CC(C)N(C)C(=O)c1c(NC(=O)c2nc(C3CC3)cnc2Nc2cncnc2)cnn1C` [Example 227, 6-Cyclopropyl-3-(pyrimidin-5-ylamino)-pyrazine-2-carboxylic acid [5-(isopropyl-methyl-carbamoyl)-1-methyl-1H-pyrazol-4-yl]-amide], 64.1 nM; for `CCN(CC)C(=O)c1c(NC(=O)c2nc(C3CC3)cnc2Nc2cncnc2)cnn1C` [Example 228, 6-Cyclopropyl-3-(pyrimidin-5-ylamino)-pyrazine-2-carboxylic acid (5-diethylcarbamoyl-1-methyl-1H-pyrazol-4-yl)-amide], 38 nM.
The value for `CCCN(C)C(=O)c1c(NC(=O)c2nc(C3CC3)cnc2Nc2cncnc2)cnn1C` [Example 229, 6-Cyclopropyl-3-(pyrimidin-5-ylamino)-pyrazine-2-carboxylic acid [1-methyl-5-(methyl-propyl-carbamoyl)-1H-pyrazol-4-yl]-amide] was 12.6 nM; that for `CCN(CCO)C(=O)c1c(NC(=O)c2nc(C3CC3)cnc2Nc2cncnc2)cnn1C` [Example 230, 6-Cyclopropyl-3-(pyrimidin-5-ylamino)-pyrazine-2-carboxylic acid {5-[ethyl-(2-hydroxy-ethyl)-carbamoyl]-1-methyl-1H-pyrazol-4-yl}-amide] was 118 nM; that for `CN(C(=O)c1c(NC(=O)c2nc(C3CC3)cnc2Nc2cncnc2)cnn1C)C1CCOCC1` [Example 231, 6-Cyclopropyl-3-(pyrimidin-5-ylamino)-pyrazine-2-carboxylic acid {1-methyl-5-[methyl-(tetrahydro-pyran-4-yl)-carbamoyl]-1H-pyrazol-4-yl}-amide] was 41.7 nM.
